# Source: patent US6492378B1, “Substituted isoquinoline derivatives and their use as anticonvulsivants” (SmithKline Beecham p.l.c., priority 1998, dated 2002)
# Tested on: maximal electroshock seizure (MEST) threshold in rodents
# Test: MEST test (maximal electroshock seizure threshold)
# Assay type: in vivo
# Conditions: 2 mg/kg p.o. at 2 h post-dose
# Procedure: 2. MEST Test The maximal electroshock seizure (MEST) threshold test in rodents is particularly sensitive for detecting potential anticonvulsant properties^1. In this model, anticonvulsant agents elevate the threshold to electrically-induced seizures whilst proconvulsants lower the seizure threshold. Method for Mouse Model Mice (naive male, Charles River, U.K. CD-1 strain, 25-30 g) are randomly assigned to groups of 10-20 and dosed orally or intraperitoneally at a dose volume of 10 ml/kg with various doses of compound (0.3-300 mg/kg) or vehicle. Mice are then subjected at 30 or 60 min post dose to a single electroshock (0.1 sec, 50 Hz, sine wave form) administered via corneal electrodes. The mean current and standard error required to induce a tonic seizure in 50% (CC50) of the mice in a particular treatment group is determined by the ‘up and down’ method of Dixon and Mood (1948)^2. Statistical comparisons between vehicle- and drug-treated groups are made using the method of Litchfield and Wilcoxon (1949)^3. In control animals the CC50 is usually 14-18 mA. […] If a tonic convulsion does occur, then the current is decreased, and so on until all the animals in the group have been tested. Studies are carried out using a Hugo Sachs Electronik Constant Current Shock Generator with totally variable control of shock level from 0 to 300 mA and steps of 2 mA are usually used. Method for Rat Model The threshold for maximal (tonic hindlimb extension) electroshock seizures in male rats (Sprague Dawley, 80-150 g, 6 weeks old) was determined by a Hugo Sachs Electronik stimulator which delivered a constant current (0.3 sec duration; from 1-300 mA in steps of 5-20 mA). The procedure is similar to that outlined above for mouse and full details are as published by Upton et al,.^4 The percentage increase or decrease in CC50 for each group compared to the control is calculated. Drugs are suspended in 1% methyl cellulose.
row,Structure (SMILES),% increases in seizure threshold [%]
1,"COc1ccc(C(=O)Nc2ccc3c(c2)CN(C)CC3(C)C)cc1Br [Example E15, N-(2,4,4-Trimethyl-1,2,3,4-tetrahydroisoquinolin-7-yl)-3-bromo-4-methoxybenzamide]",263
2,"COc1ccc(C(=O)Nc2ccc3c(c2)CN(C)CC3(C)C)cc1I [Example E17, N-(2,4,4-Trimethyl-1,2,3,4-tetrahydroisoquinolin-7-yl)-3-iodo-4-methoxybenzamide]",314
3,"COc1cc(OC(C)C)c(Cl)cc1C(=O)Nc1cccc2c1C(C)(C)CN(C)C2 [Example E29, N-(2,4,4-Trimethyl-1,2,3,4-tetrahydroisoquinolin-5-yl)-5-chloro-2-methoxy-4-iso-propyloxybenzamide]",310
4,"COc1cc(C(C)C)c(C(F)(F)F)cc1C(=O)Nc1cccc2c1C(C)(C)CN(C)C2 [Example E34, N-(2,4,4-Trimethyl-1,2,3,4-tetrahydroisoquinolin-5-yl)-2-methoxy-4-iso-propyl-5-trifluoromethylbenzamide]",280
5,"CCc1c(NC(=O)c2ccc(OC(C)C)c(C(C)=O)c2)ccc2c1CN(C)CC2(C)C [Example E48, N-(8-Ethyl-2,4,4-trimethyl-1,2,3,4-tetrahydroisoquinolin-7-yl)-3-acetyl-4-iso-propyloxybenzamide]",240
6,"COc1ccc(C(=O)Nc2ccc3c(c2)CN(C)C(C)(C)C3)cc1C(F)(F)F [Example E69, N-(2,3,3-Trimethyl-1,2,3,4-tetrahydroisoquinolin-7-yl)4-methoxy-3-trifluoromethylbenzamide]",340
